system: isolated rat soleus nerve-muscle preparations; test: Measurement of force in an in vitro model: recovery of nerve-stimulated contractile force after tubocurarine; details: 40 min, 10 μM of test compound, after 40 mins of compound exposure, tubocurarine (115 nM) for 90 minutes, read-out: Point increase (%): percentage increase of initial force that was restored
Method: In one aspect, the invention relates to a method for recovery of force in muscles with neuromuscular dysfunction, said method comprising administering a compound or a composition as defined herein to a subject in need thereof. The term “recovery of force in muscles with neuromuscular dysfunction” as used herein refers to the ability of a compound to recover contractile force in nerve-stimulated healthy rat muscle after exposure to submaximal concentration (115 nM) of tubocurarine for 90 minutes.
Recovery of force is quantified as the percentage of the force prior to tubocurarine that is recovered after addition of the compound. In one embodiment, said recovery of force is >5%, such as >10%, such as >15%, such as >20%, such as >25%, such as >30%, such as >35%.
The current disclosure relates to compounds that inhibit CIC-1 ion channels and increase muscle excitability and thereby improve muscle function in clinical conditions where muscle activation is failing. Such conditions result in loss of contractile function of skeletal muscle, weakness and excessive fatigue. In this series of experiments the compounds were tested for their ability to restore contractile function of isolated rat muscle when the neuromuscular transmission had been compromised akin to neuromuscular disorders.
Experimentally, soleus muscles from 4-5 week old rats were isolated with the motor nerve remaining attached. The nerve-muscle preparations were mounted in experimental setups that enabled electrical stimulation of the motor nerve. Stimulation of the motor nerve led to activation of the muscle fibres and ensuing force production that was recorded. The nerve-muscle preparations were also in these experiments incubated in the standard Krebs Ringer (see example 15) and the solution was heated to 30° C. and continuously equilibrated with a mixture of 95% O2 and 5% CO2, pH ~7.4.
After mounting the nerve-muscle preparation in the experimental setup, the contractile function of the muscle was initially assessed under the control conditions. Sub-maximal concentration of tubocurarine (115 nM), an acetylcholine receptor antagonist, was then added to the experimental bath to impose partial inhibition of the ability of the motor nerve to activate the muscle fibres. The experimental condition mimics the failing neuromuscular transmission in a range of neuromuscular disorders. After addition of tubocurarine the contractile force declined over the next 90 minutes to 10-50% of the control force. The test compound was then added to obtain the required compound concentration in the bath and the contractile force recovered was measured. To quantify the ability of the compound to restore force the percentage of the initial force that was restored was determined after 40 mins of compound exposure and the point increase is reported in Tables 3 to 7.

Row | SMILES | activation at 10 µM [%]
1 | O=C(O)c1cc(Cl)cc2c1CCCC2 [Compound A-3, 3-chloro-5,6,7,8-tetrahydronaphthalene-1-carboxylic acid] | 38
2 | O=C(O)c1c(Br)c(Cl)cc2c1CCCC2 [Compound A-66, 2-Bromo-3-chloro-5,6,7,8-tetrahydronaphthalene-1-carboxylic acid] | 25
3 | O=C(O)c1c(Cl)c(Br)cc2c1CCCC2 [Compound A-67, 3-bromo-2-chloro-5,6,7,8-tetrahydronaphthalene-1-carboxylic acid] | 25
4 | CC1(C)CCc2cc(F)c(Cl)c(C(=O)O)c2O1 [Compound A-75, 7-Chloro-6-fluoro-2,2-dimethyl-8-chromancarboxylic acid] | 10
5 | CN1CCCc2cc(F)c(Cl)c(C(=O)O)c21 [Compound A-77, 7-Chloro-6-fluoro-1-methyl-1,2,3,4-tetrahydro-8-quinolinecarboxylic acid] | 18
6 | COc1c(Cl)cc2c(c1C(=O)O)CCCO2 [Compound A-79, 7-Chloro-6-methoxy-5-chromancarboxylic acid] | 34
7 | CCOc1c(Cl)cc2c(c1C(=O)O)CCCC2 [Compound A-82, 3-Chloro-2-ethoxy-5,6,7,8-tetrahydro-1-naphthoic acid] | 61

same assay, conditions: 40 min, 25 μM of test compound, after 40 mins of compound exposure, tubocurarine (115 nM) for 90 minutes, read-out: Point increase (%): percentage increase of initial force that was restored

Row | SMILES | activation at 25 µM [%]
8 | O=C(O)c1c(Cl)c(F)cc2c1CCC2 [Compound A-62, 5-Chloro-6-fluoro-2,3-dihydro-1H-indene-4-carboxylic acid] | 14
9 | O=C(O)c1c(Cl)c(F)cc2c1SCCC2 [Compound A-64, 7-Chloro-6-fluoro-3,4-dihydro-2H-1-benzothiopyran-8-carboxylic acid] | 34
10 | O=C(O)c1c(F)c(Cl)cc2c1CCN2Cc1ccccc1 [Compound A-76, 1-Benzyl-6-chloro-5-fluoro-4-indolinecarboxylic acid] | 45
11 | O=C(O)c1c(F)c(Cl)cc2c1OCCC2Cc1ccccc1 (centres unmarked) [Compound A-78, 4-Benzyl-6-chloro-7-fluoro-8-chromancarboxylic acid] | 35

same assay, conditions: 40 min, 50 μM of test compound, after 40 mins of compound exposure, tubocurarine (115 nM) for 90 minutes, read-out: Point increase (%): percentage increase of initial force that was restored

Row | SMILES | activation at 50 µM [%]
12 | Cc1c(Cl)cc2c(c1C(=O)O)CCC2 [Compound A-1, 6-Chloro-5-methyl-2,3-dihydro-1H-indene-4-carboxylic acid] | 23
13 | Cc1c(Br)cc2c(c1C(=O)O)CCC2 [Compound A-2, 6-Bromo-5-methyl-2,3-dihydro-1H-indene-4-carboxylic acid] | 19
14 | Cc1cc2c(c(C(=O)O)c1C)CCC2 [Compound A-4, 5,6-dimethyl-2,3-dihydro-1H-indene-4-carboxylic acid] | 30
15 | O=C(O)c1c2c(cc(Cl)c1OCF)CCC2 [Compound A-7, 6-Chloro-5-(fluoromethoxy)-2,3-dihydro-1H-indene-4-carboxylic acid] | 36
16 | O=C(O)c1c2c(cc(Cl)c1OC(F)(F)F)CCC2 [Compound A-11, 6-Chloro-5-(trifluoromethoxy)-2,3-dihydro-1H-indene-4-carboxylic acid] | 31
17 | Cc1c(Cl)cc2c(c1C(=O)O)OCC2 [Compound A-12, 5-Chloro-6-methyl-2,3-dihydro-1-benzofuran-7-carboxylic acid] | 19
18 | Cc1cc2c(c(C(=O)O)c1Cl)CCCCC2 [Compound A-34, 2-chloro-3-methyl-6,7,8,9-tetrahydro-5H-benzo[7]annulene-1-carboxylic acid] | 20
19 | O=C(O)c1c(F)c(Cl)cc2c1OCC2 [Compound A-43, 5-Chloro-6-fluoro-2,3-dihydro-1-benzofuran-7-carboxylic acid] | 25
20 | O=C(O)c1c(F)c(I)cc2c1CCCC2 [Compound A-55, 2-Fluoro-3-iodo-5,6,7,8-tetrahydronaphthalene-1-carboxylic acid] | 42
21 | Cc1cc2c(c(C(=O)O)c1F)CCCO2 [Compound A-58, 6-Fluoro-7-methyl-3,4-dihydro-2H-1-benzopyran-5-carboxylic acid] | 48
22 | O=C(O)c1c(F)c(C(F)(F)F)cc2c1CCCC2 [Compound A-60, 2-Fluoro-3-(trifluoromethyl)-5,6,7,8-tetrahydronaphthalene-1-carboxylic acid] | 21
23 | COc1cc2c(c(C(=O)O)c1F)OCCC2Cc1ccccc1 (centres unmarked) [Compound A-80, 4-Benzyl-7-fluoro-6-methoxy-8-chromancarboxylic acid] | 22
24 | COc1c(F)cc2c(c1C(=O)O)C(Cc1ccccc1)CCO2 (centres unmarked) [Compound A-81, 4-Benzyl-7-fluoro-6-methoxy-5-chromancarboxylic acid] | 19

same assay, conditions: 40 min, 100 μM of test compound, after 40 mins of compound exposure, tubocurarine (115 nM) for 90 minutes, read-out: Point increase (%): percentage increase of initial force that was restored

Row | SMILES | activation at 100 µM [%]
25 | CN1CCCc2c1cc(Cl)c(F)c2C(=O)O [Compound A-45, 7-Chloro-6-fluoro-1-methyl-1,2,3,4-tetrahydroquinoline-5-carboxylic acid] | 38
26 | O=C(O)c1c(Cl)c(Cl)cc2c1CN(Cc1ccccc1)C2 [Compound A-68, 2-Benzyl-5,6-dichloro-2,3-dihydro-1H-isoindole-4-carboxylic acid] | 40

biological target: T1, CIC-1 ion channel (Rattus norvegicus, UniProt P35524); test: Electrophysiological measurement of compound inhibition of CIC-1 in rat muscle (Gm in soleus fibres, three micro-electrodes); assay type: cell-based; details: Gm in individual fibres of whole rat soleus muscles, approx. 30° C., four increasing compound concentrations; read-out: Potency Range (EC50, inhibition of CIC-1 ion channel)
T1 construct: from tissue; host or cells: whole soleus muscle of 12-14 week old Wistar rats
T1 sequence (P35524 1-994): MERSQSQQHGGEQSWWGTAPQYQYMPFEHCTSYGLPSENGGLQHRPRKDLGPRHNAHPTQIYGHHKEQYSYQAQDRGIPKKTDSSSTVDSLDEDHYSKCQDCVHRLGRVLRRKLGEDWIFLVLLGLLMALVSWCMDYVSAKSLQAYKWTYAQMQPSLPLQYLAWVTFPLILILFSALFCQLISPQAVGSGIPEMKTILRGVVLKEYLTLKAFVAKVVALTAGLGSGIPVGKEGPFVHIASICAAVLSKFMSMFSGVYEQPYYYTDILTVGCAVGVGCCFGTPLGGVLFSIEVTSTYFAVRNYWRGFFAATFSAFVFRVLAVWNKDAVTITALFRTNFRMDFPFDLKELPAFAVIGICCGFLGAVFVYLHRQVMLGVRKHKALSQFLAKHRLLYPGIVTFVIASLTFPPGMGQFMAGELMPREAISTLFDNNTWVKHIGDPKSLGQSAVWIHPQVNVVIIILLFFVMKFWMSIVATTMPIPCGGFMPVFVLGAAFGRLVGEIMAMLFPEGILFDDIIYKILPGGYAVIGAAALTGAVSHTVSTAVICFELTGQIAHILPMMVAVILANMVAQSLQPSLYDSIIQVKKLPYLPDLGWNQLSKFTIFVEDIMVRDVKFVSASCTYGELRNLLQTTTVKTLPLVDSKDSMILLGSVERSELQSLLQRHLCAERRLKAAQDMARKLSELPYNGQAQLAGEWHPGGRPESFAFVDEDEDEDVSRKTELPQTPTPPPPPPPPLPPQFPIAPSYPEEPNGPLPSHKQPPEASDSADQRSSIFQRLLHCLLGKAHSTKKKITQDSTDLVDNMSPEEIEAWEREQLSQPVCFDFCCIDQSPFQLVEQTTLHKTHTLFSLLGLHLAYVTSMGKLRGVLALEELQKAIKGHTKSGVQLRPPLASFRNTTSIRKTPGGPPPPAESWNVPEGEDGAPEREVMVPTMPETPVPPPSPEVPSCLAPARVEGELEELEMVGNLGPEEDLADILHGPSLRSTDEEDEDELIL
Method: Apparent CIC-1 affinity was reported by the concentration of compound at which 50% of the compound's full inhibition of CIC-1 was observed (EC50) (see also WO2019/115777).
Experimentally, Gm was measured in individual fibres of whole rat soleus muscles using a three micro-electrodes technique described in this example and in full detail elsewhere (Riisager et al., Determination of cable parameters in skeletal muscle fibres during repetitive firing of action potentials. Journal of Physiology, 2014, 592, 4417-4429). Briefly, intact rat soleus muscles were dissected out from 12-14 week old Wistar rats and placed in an experimental chamber that was perfused with a standard Krebs Ringer solution containing 122 mM NaCl, 25 mM NaHCO3, 2.8 mM KCl, 1.2 mM KH2PO4, 1.2 mM MgSO4, 1.3 mM CaCl2, 5.0 mM D-glucose. During experiments, the solution was kept at approx. 30° C. and continuously equilibrated with a mixture of 95% O2 and 5% CO2, pH ~7.4. The experimental chamber was placed in Nikon upright microscope that was used to visualize individual muscle fibres and the three electrodes (glass pipettes filled with 2 M potassium citrate). For Gm measurements, the electrodes were inserted into the same fibre with known inter-electrode distances of 0.35-0.5 mm (V1-V2, X1) and 1.1-1.5 mm (V1-V3, X3). The membrane potential of the impaled muscle fibre was recorded by all electrodes. Two of the electrodes were furthermore used to inject 50 ms current pulses of −30 nA. […] The steady state voltage deflection at each distance was divided by the magnitude of current injected (−30 nA) and the resulting transfer resistances were plotted against inter-electrode distance and the data was fitted to a mono-exponential function from which Gm could be calculated using linear cable theory.
To establish a dose response relationship, Gm was first determined in 10 muscle fibres in the absence of compound and then at four increasing compound concentrations with Gm determinations in 5-10 fibres at each concentration. The average Gm values at each concentration were plotted against compound concentration and the data was fitted to sigmoidal function to obtain an EC5o value.

Row | SMILES | EC50 [µM]
27 | Cc1c(Cl)cc2c(c1C(=O)O)CCC2 [Compound A-1, 6-Chloro-5-methyl-2,3-dihydro-1H-indene-4-carboxylic acid] | 10 to 20
28 | O=C(O)c1cc(Cl)cc2c1CCCC2 [Compound A-3, 3-chloro-5,6,7,8-tetrahydronaphthalene-1-carboxylic acid] | 2 to 10
29 | Cc1cc2c(c(C(=O)O)c1C)CCC2 [Compound A-4, 5,6-dimethyl-2,3-dihydro-1H-indene-4-carboxylic acid] | 10 to 20

— US20260199273A1, “Compounds for the Treatment of Neuromuscular Disorders” (NMD PHARMA A/S, priority 2022, published 2026)
